Series [1] is described as follows: Drug-drug interaction study with itraconazole. It counts as in vivo, humans. The note with it: with coadministration of itraconazole. The protocol: An open-label, fixed-sequence, 2-period drug-drug interaction (DDI) study was designed to evaluate the effect of multiple doses of a strong inhibitor of CYP3A4 and P-gp on the single-dose PK of etrumadenant in humans. Etrumadenant was supplied as 25 mg capsules. Itraconazole was used as the representative strong inhibitor of CYP3A4 and P-gp. It was supplied as 10 mg/mL oral solution, Sporanox® by Janssen Pharmaceuticals (or generic equivalent). Twenty (20) healthy, adult male and female (of non-childbearing potential) participants were enrolled. Screening of participants occurred within 28 days prior to the first dosing.
On Day 1 of Period 1, a single 150 mg dose of etrumadenant was orally administered under fasting conditions (i.e., at least 10 hours of fasting prior to dosing and at least 4 hours postdose). PK sampling for etrumadenant and its metabolites was taken predose and up to 120 hours postdose. There was a washout of 5 days between the etrumadenant dose in Period 1 and the first itraconazole dose in Period 2.
In Period 2, 200 mg itraconazole was orally administered twice a day (BID) on Day 1 and once a day (QD) for 9 consecutive days (on Days 2 through 10) with a single 150 mg dose of etrumadenant orally administered 1 hour after itraconazole dosing on Day 6. Itraconazole was administered under fasting conditions. On Day 6, participants fasted for at least 10 hours prior to and at least 4 hours post etrumadenant dosing. PK sampling for etrumadenant and its metabolites was taken predose and up to 120 hours after etrumadenant dosing. PK sampling for itraconazole and 1-hydroxy-itraconazole was collected on Days 5, 6, 7, 9, and 11.
Itraconazole was administered twice on the first day of Period 2 as a loading dose to accelerate CYP3A inhibition and the inhibition was then maintained by administering itraconazole 200 mg QD for 9 consecutive days. A 200 mg BID dose level is expected to provide similar inhibition to a 400 mg QD dose. Although itraconazole reaches steady state within approximately 15 days, it has been established that QD administration of 200 mg itraconazole for 3 to 5 days allows maximum CYP3A inhibition sufficient to detect a DDI. […] As such, administration of itraconazole for at least 4 days is considered sufficient in DDI studies as a CYP3A4 and P-gp inhibitor. To maintain the level of inhibition, itraconazole was administered throughout PK sampling of etrumadenant (i.e., through Day 10 of Period 2). In addition, the itraconazole oral solution was administered under fasting conditions to maximize bioavailability.
Participants were housed on Day −1 of Period 1, at the time indicated by the clinical research unit (CRU), until after the 120-hour blood draw and completion of study procedures in Period 2. Safety was monitored throughout the study by repeated clinical and laboratory evaluations. In this study, there were no discontinued participants. All participants who received at least one dose of study drug (including participants who terminated the study early) were asked to return to the CRU approximately 14 days after the last dose for follow-up procedures, and to determine if any adverse event (AE) had occurred since the last study visit. All adverse events reported in the study were mild and resolved without treatment.

In another series the target is P-gp (Homo sapiens, UniProt P08183). The note with it: 200 mg QD itraconazole for 5 days; reported in the literature; cited from earlier work.
Chain of P-gp (P08183 whole entry): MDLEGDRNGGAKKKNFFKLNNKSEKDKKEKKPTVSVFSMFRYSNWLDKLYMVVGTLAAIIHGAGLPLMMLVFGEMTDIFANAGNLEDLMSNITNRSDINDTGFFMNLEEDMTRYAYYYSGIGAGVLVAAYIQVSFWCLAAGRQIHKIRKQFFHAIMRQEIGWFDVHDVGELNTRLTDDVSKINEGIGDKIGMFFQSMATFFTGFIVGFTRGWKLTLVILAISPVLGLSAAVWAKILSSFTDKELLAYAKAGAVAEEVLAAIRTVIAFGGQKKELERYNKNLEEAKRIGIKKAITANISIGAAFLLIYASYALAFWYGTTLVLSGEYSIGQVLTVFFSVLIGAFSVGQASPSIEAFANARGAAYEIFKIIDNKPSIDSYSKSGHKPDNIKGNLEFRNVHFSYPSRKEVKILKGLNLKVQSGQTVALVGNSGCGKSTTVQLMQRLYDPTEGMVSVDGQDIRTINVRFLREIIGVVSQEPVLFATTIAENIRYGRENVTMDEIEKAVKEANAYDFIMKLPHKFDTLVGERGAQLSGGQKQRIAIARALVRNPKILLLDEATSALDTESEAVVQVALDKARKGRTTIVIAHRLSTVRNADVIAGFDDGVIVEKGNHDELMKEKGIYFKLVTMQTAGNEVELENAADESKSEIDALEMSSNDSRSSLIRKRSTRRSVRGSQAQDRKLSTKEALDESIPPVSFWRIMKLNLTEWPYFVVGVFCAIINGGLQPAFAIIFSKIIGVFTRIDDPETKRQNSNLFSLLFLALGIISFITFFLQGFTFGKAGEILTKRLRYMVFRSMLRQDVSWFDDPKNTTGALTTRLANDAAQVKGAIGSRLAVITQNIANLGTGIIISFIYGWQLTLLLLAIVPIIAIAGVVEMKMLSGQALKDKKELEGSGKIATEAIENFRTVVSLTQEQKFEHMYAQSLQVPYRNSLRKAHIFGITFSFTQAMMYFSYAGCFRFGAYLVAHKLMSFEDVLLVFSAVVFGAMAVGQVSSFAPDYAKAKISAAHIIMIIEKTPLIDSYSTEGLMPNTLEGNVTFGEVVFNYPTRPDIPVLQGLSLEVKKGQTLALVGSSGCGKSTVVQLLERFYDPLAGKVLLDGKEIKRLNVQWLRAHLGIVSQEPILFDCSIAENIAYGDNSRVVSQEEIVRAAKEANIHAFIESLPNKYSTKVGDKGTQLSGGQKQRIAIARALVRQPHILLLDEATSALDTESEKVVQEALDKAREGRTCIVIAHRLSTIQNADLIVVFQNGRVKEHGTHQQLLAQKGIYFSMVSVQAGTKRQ

Take `Cc1c(C#N)cccc1-c1cc(-c2c[nH]nn2)nc(N)n1` [N-dealkylated etrumadenant]: in series [1], the “decrease in metabolite-to-parent ratio MP AUC0-24” value is reported as “approximately 87%” and the “decrease in metabolite-to-parent ratio MP Cmax” value is reported as about 90%.

Regarding `C[C@H]1O[C@@H](O[C@H]2[C@@H](O)C[C@H](O[C@H]3[C@@H](O)C[C@H](O[C@H]4CC[C@@]5(C)[C@H](CC[C@@H]6[C@@H]5C[C@@H](O)[C@]5(C)[C@@H](C7=CC(=O)OC7)CC[C@]65O)C4)O[C@@H]3C)O[C@@H]2C)C[C@H](O)[C@@H]1O` [digoxin], the “increase of oral digoxin AUC” value at P-gp is “approximately 1.7 fold”.

The values above are taken from patent US20260115190A1, “DISPERSIONS OF ETRUMADENANT” (Arcus Biosciences, Inc., priority 2022, published 2026).
